Source: BindingDB's records for patent US12391670 (Leadxpro, 2025)

Experiments:
Assay in all cases: Radioligand Binding Assay
Adenosine receptor A2a = Adenosine receptor A2a (Homo sapiens, UniProt P29274)
Experimental: (§1) For all four adenosine receptors (A1, A2A, A2B and A3) filtration binding assay was performed. Radioligand binding competition assay was done in duplicates in the wells of a 96-well plate (Master Block, Greiner, 786201) containing binding buffer, receptor membrane extracts, a fixed concentration of tracer and test compound at increasing concentrations. In order to eliminate effect of buffer components, binding buffer was the same for all four receptors and contained: 50 mM Tris-HCl pH 7.4, 5 mM MgCl2, 1 mM EDTA, 150 mM NaCl, 0.1% Na-azide, and 5 U/ml adenosine-deaminase. Nonspecific binding was determined by co-incubation with 200-fold excess of cold competitor. In all radioligand binding experiments, the samples were incubated in a final volume of 0.1 ml for 60 minutes at 25° C. and then filtered over Unifilter plates (Perkin Elmer) pre-treated for 2 hours to limit tracer non-specific binding. Filters were washed five times with 0.5 ml of ice-cold washing buffer (50 mM Tris-HCl pH 7.4, 5 mM MgCl2, 1 mM EDTA) and 50 μl of Microscint 20 (Perkin Elmer) were added to each filter. The plates are incubated 15 min at room temperature on an orbital shaker and then counted with a TopCount™ for 1 min/well.

Adenosine receptor A2b = target: T1, Adenosine receptor A2b (Homo sapiens, UniProt P29275)
T1 sequence (P29275 whole entry): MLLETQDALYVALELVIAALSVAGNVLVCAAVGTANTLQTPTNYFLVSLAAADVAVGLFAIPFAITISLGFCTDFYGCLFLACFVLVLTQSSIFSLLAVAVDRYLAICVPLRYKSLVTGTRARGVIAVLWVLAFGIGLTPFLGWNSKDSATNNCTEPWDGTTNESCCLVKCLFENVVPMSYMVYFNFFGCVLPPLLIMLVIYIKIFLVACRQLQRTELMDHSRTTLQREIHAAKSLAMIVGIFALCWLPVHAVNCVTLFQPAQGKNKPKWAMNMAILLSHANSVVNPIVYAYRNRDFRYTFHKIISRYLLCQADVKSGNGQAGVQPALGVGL
Experimental: as §1

Adenosine receptor A3 = target: T2, Adenosine receptor A3 (Homo sapiens, UniProt P0DMS8)
T2 sequence (P0DMS8 whole entry): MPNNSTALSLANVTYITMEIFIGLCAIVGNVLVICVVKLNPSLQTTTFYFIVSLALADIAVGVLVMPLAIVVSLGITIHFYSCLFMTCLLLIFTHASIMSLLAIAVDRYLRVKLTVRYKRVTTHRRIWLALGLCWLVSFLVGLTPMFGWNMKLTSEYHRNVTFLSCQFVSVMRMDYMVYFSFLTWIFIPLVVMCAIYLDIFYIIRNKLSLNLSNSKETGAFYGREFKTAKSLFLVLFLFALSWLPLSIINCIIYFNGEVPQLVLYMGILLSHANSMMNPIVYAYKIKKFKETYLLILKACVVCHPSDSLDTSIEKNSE
Experimental: as §1

Adenosine receptor A2a, sequence (P29274 whole entry): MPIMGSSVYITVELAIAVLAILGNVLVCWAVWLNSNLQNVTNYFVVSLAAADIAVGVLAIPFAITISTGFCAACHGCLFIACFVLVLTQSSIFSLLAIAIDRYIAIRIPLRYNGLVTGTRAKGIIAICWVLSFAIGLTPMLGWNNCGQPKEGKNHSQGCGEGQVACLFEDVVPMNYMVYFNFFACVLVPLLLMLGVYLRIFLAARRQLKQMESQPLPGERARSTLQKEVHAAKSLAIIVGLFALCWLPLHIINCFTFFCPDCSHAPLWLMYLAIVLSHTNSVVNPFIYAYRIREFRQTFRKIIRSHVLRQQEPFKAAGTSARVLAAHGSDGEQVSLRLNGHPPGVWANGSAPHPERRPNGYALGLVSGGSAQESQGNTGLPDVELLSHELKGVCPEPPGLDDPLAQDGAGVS

Structure (SMILES) | IC50 (Adenosine receptor A2a) | Ki (Adenosine receptor A2a) | IC50 (Adenosine receptor A2b) | Ki (Adenosine receptor A2b) | IC50 (Adenosine receptor A3) | Ki (Adenosine receptor A3)
Fc1ccccc1-c1nc(Nc2cccnc2)nnc1-c1ccnc(C(F)(F)F)c1 [US12391670, Example 8] | 24.1 µM | 24 µM | 250 nM | 224 nM | 1350 nM | 1020 nM
Cc1nsc(Nc2nnc(-c3ccnc(C(F)(F)F)c3)c(-c3ccccc3F)n2)n1 [US12391670, Example 11] |  | > 20 µM | 1010 nM | 891 nM |  | 
